Values of other authors as cited in PMC3433420 (PLoS ONE, 2012).
Read-outs that look alike come from different tables or passages of the source.

Columns and labels:
GRB7 SH2 domain = GRB7 SH2 domain (Homo sapiens, UniProt Q14451); design: 6X His; thioredoxin; made in house; host or cells: E. coli BL21(DE3)pLysS; details: Protein GRB7, most recent PM interactions, cited from earlier work
SH2 and PTB domains = details: most recent PM interactions, cited from earlier work
Source text: Supplement pone.0044471.s022.xlsx, sheet "Most recent PM interactions" | column: Kd || Supplement pone.0044471.s022.xlsx, sheet "All original PM interactions" | column: Kd

[1] = ref Jones et al. 2006 / Kaushansky et al. Chem and Biol 2008
[2] = Protein BLK, ref Jones et al. 2006 / Kaushansky et al. Chem and Biol 2008
[3] = Protein SRC, ref Jones et al. 2006 / Kaushansky et al. Chem and Biol 2008
[4] = Protein SYK-NC, ref Jones et al. 2006 / Kaushansky et al. Chem and Biol 2008
[5] = Protein YES1, ref Jones et al. 2006 / Kaushansky et al. Chem and Biol 2008

Sequence of GRB7 SH2 domain (Q14451 431-527 limits assumed): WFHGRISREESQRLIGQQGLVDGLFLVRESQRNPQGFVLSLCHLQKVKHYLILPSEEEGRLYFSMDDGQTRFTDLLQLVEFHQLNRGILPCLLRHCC

## EHKDNIGSQpYLLNWCVQd [ErbB1 813]
GRB7 SH2 domain; ref Kaushansky et al. Mol Biosys 2008
  Kd: 460 nM
SH2 and PTB domains; Protein ABL2, ref Kaushansky et al. Mol Biosys 2008
  Kd: 200 nM
SH2 and PTB domains; Protein GRB10, ref Kaushansky et al. Mol Biosys 2008
  Kd: 350 nM
SH2 and PTB domains; Protein ITK, ref Kaushansky et al. Mol Biosys 2008
  Kd: 310 nM
SH2 and PTB domains; Protein NCK2, ref Kaushansky et al. Mol Biosys 2008
  Kd: 200 nM
SH2 and PTB domains; Protein PIK3R1-C, ref Kaushansky et al. Mol Biosys 2008
  Kd: 1850 nM
SH2 and PTB domains; Protein PIK3R1-NC, ref Kaushansky et al. Mol Biosys 2008
  Kd: 1820 nM
SH2 and PTB domains; Protein PIK3R3-NC, ref Kaushansky et al. Mol Biosys 2008
  Kd: 1870 nM
SH2 and PTB domains; Protein RASA1-C, ref Kaushansky et al. Mol Biosys 2008
  Kd: 1950 nM
SH2 and PTB domains; Protein RASA1-NC, ref Kaushansky et al. Mol Biosys 2008
  Kd: 160 nM
SH2 and PTB domains; Protein SH2D1B, ref Kaushansky et al. Mol Biosys 2008
  Kd: 1600 nM
SH2 and PTB domains; Protein SH2D3C, ref Kaushansky et al. Mol Biosys 2008
  Kd: 50 nM
SH2 and PTB domains; Protein SHB, ref Kaushansky et al. Mol Biosys 2008
  Kd: 280 nM
SH2 and PTB domains; Protein SHE, ref Kaushansky et al. Mol Biosys 2008
  Kd: 1380 nM
SH2 and PTB domains; Protein SHF, ref Kaushansky et al. Mol Biosys 2008
  Kd: 1060 nM
SH2 and PTB domains; Protein SRC, ref Kaushansky et al. Mol Biosys 2008
  Kd: 80 nM
SH2 and PTB domains; Protein SYK-NC, ref Kaushansky et al. Mol Biosys 2008
  Kd: 240 nM
SH2 and PTB domains; Protein TENC1, ref Kaushansky et al. Mol Biosys 2008
  Kd: 1150 nM
SH2 and PTB domains; Protein TNS3, ref Kaushansky et al. Mol Biosys 2008
  Kd: 1890 nM
SH2 and PTB domains; Protein VAV1, ref Kaushansky et al. Mol Biosys 2008
  Kd: 370 nM
SH2 and PTB domains; Protein VAV2, ref Kaushansky et al. Mol Biosys 2008
  Kd: 470 nM
SH2 and PTB domains; Protein VAV3, ref Kaushansky et al. Mol Biosys 2008
  Kd: 960 nM
SH2 and PTB domains; Protein YES1, ref Kaushansky et al. Mol Biosys 2008
  Kd: 22 nM

## LPSPTDSNFpYRALMDEEd [ErbB1 998]
GRB7 SH2 domain; ref Jones et al. 2006 / Kaushansky et al. Mol Biosys 2008 / Kaushansky et al. Chem and Biol 2008
  Kd: 760 nM
SH2 and PTB domains; Protein BLK, ref Jones et al. 2006 / Kaushansky et al. Mol Biosys 2008 / Kaushansky et al. Chem and Biol 2008
  Kd: 190 nM
SH2 and PTB domains; Protein FES, ref Jones et al. 2006 / Kaushansky et al. Mol Biosys 2008 / Kaushansky et al. Chem and Biol 2008
  Kd: 1230 nM
SH2 and PTB domains; Protein GRB10, ref Jones et al. 2006 / Kaushansky et al. Mol Biosys 2008 / Kaushansky et al. Chem and Biol 2008
  Kd: 1690 nM
SH2 and PTB domains; Protein ITK, ref Jones et al. 2006 / Kaushansky et al. Mol Biosys 2008 / Kaushansky et al. Chem and Biol 2008
  Kd: 280 nM
SH2 and PTB domains; Protein PIK3R1-NC, ref Jones et al. 2006 / Kaushansky et al. Mol Biosys 2008 / Kaushansky et al. Chem and Biol 2008
  Kd: 240 nM
SH2 and PTB domains; Protein PIK3R3-NC, ref Jones et al. 2006 / Kaushansky et al. Mol Biosys 2008 / Kaushansky et al. Chem and Biol 2008
  Kd: 970 nM
SH2 and PTB domains; Protein PLCG2-NC, ref Jones et al. 2006 / Kaushansky et al. Mol Biosys 2008 / Kaushansky et al. Chem and Biol 2008
  Kd: 1390 nM
SH2 and PTB domains; Protein RASA1-N, ref Jones et al. 2006 / Kaushansky et al. Mol Biosys 2008 / Kaushansky et al. Chem and Biol 2008
  Kd: 710 nM
SH2 and PTB domains; Protein RASA1-NC, ref Jones et al. 2006 / Kaushansky et al. Mol Biosys 2008 / Kaushansky et al. Chem and Biol 2008
  Kd: 1650 nM
SH2 and PTB domains; Protein SH2B3, ref Jones et al. 2006 / Kaushansky et al. Mol Biosys 2008 / Kaushansky et al. Chem and Biol 2008
  Kd: 1360 nM
SH2 and PTB domains; Protein SHC1-PTB, ref Jones et al. 2006 / Kaushansky et al. Mol Biosys 2008 / Kaushansky et al. Chem and Biol 2008
  Kd: 1150 nM
SH2 and PTB domains; Protein SHC2-PTB, ref Jones et al. 2006 / Kaushansky et al. Mol Biosys 2008 / Kaushansky et al. Chem and Biol 2008
  Kd: 980 nM
SH2 and PTB domains; Protein SRC, ref Jones et al. 2006 / Kaushansky et al. Mol Biosys 2008 / Kaushansky et al. Chem and Biol 2008
  Kd: 1140 nM
SH2 and PTB domains; Protein SYK-NC, ref Jones et al. 2006 / Kaushansky et al. Mol Biosys 2008 / Kaushansky et al. Chem and Biol 2008
  Kd: 910 nM
SH2 and PTB domains; Protein YES1, ref Jones et al. 2006 / Kaushansky et al. Mol Biosys 2008 / Kaushansky et al. Chem and Biol 2008
  Kd: 720 nM
SH2 and PTB domains; Protein ZAP70-NC, ref Jones et al. 2006 / Kaushansky et al. Mol Biosys 2008 / Kaushansky et al. Chem and Biol 2008
  Kd: 1650 nM

## MGDLVDAEEpYLVPQQGF [ErbB2 1023]
GRB7 SH2 domain; [1]
  Kd: 1800 nM
SH2 and PTB domains; [2]
  Kd: 600 nM
SH2 and PTB domains; Protein ITK, ref Jones et al. 2006 / Kaushansky et al. Chem and Biol 2008
  Kd: 450 nM
SH2 and PTB domains; Protein PIK3R1-NC, ref Jones et al. 2006 / Kaushansky et al. Chem and Biol 2008
  Kd: 1640 nM
SH2 and PTB domains; Protein PIK3R2-N, ref Jones et al. 2006 / Kaushansky et al. Chem and Biol 2008
  Kd: 1950 nM
SH2 and PTB domains; Protein PIK3R3-N, ref Jones et al. 2006 / Kaushansky et al. Chem and Biol 2008
  Kd: 1930 nM
SH2 and PTB domains; Protein PIK3R3-NC, ref Jones et al. 2006 / Kaushansky et al. Chem and Biol 2008
  Kd: 530 nM
SH2 and PTB domains; Protein PLCG1-C, ref Jones et al. 2006 / Kaushansky et al. Chem and Biol 2008
  Kd: 1460 nM
SH2 and PTB domains; Protein RASA1-N, ref Jones et al. 2006 / Kaushansky et al. Chem and Biol 2008
  Kd: 2000 nM
SH2 and PTB domains; Protein RASA1-NC, ref Jones et al. 2006 / Kaushansky et al. Chem and Biol 2008
  Kd: 1770 nM
SH2 and PTB domains; [3]
  Kd: 760 nM
SH2 and PTB domains; Protein SUPT6H, ref Jones et al. 2006 / Kaushansky et al. Chem and Biol 2008
  Kd: 910 nM
SH2 and PTB domains; [4]
  Kd: 370 nM
SH2 and PTB domains; [5]
  Kd: 1170 nM

## RLLDIDETEpYHADGGKVd [ErbB2 877]
GRB7 SH2 domain; ref Kaushansky et al. Chem and Biol 2008
  Kd: 1200 nM
SH2 and PTB domains; Protein BLK, ref Kaushansky et al. Chem and Biol 2008
  Kd: 720 nM
SH2 and PTB domains; Protein PLCG2-N, ref Kaushansky et al. Chem and Biol 2008
  Kd: 650 nM
SH2 and PTB domains; Protein PLCG2-NC, ref Kaushansky et al. Chem and Biol 2008
  Kd: 1100 nM
SH2 and PTB domains; Protein RASA1-NC, ref Kaushansky et al. Chem and Biol 2008
  Kd: 1400 nM
SH2 and PTB domains; Protein YES1, ref Kaushansky et al. Chem and Biol 2008
  Kd: 1890 nM

## TEEEDEDEEpYEYMNRRR [ErbB3 1197]
GRB7 SH2 domain; [1]
  Kd: 130 nM
SH2 and PTB domains; Protein ABL1, ref Jones et al. 2006 / Kaushansky et al. Chem and Biol 2008
  Kd: 1430 nM
SH2 and PTB domains; Protein ABL2, ref Jones et al. 2006 / Kaushansky et al. Chem and Biol 2008
  Kd: 1110 nM
SH2 and PTB domains; [2]
  Kd: 70 nM
SH2 and PTB domains; Protein FGR, ref Jones et al. 2006 / Kaushansky et al. Chem and Biol 2008
  Kd: 710 nM
SH2 and PTB domains; Protein LYN, ref Jones et al. 2006 / Kaushansky et al. Chem and Biol 2008
  Kd: 1070 nM
SH2 and PTB domains; [3]
  Kd: 870 nM
SH2 and PTB domains; [4]
  Kd: 890 nM
SH2 and PTB domains; [5]
  Kd: 130 nM
